Like-named read-outs stand apart in the source and are kept apart here.
Molecular target: T1, MRGPRX4 (Homo sapiens, UniProt Q96LA9)
T1 construct: expressed in transfected cells; host or cells: HEK293T
Assay: IP1 accumulation HTRF assay, MRGPRX4
Type: cell-based
Details: 2 h; for activation at 80 µM: log [agonist] (M) -4.09691; for activation at 16 µM: log [agonist] (M) -4.79588; for activation at 3.2 µM: log [agonist] (M) -5.49485; for activation at 0.64 µM: log [agonist] (M) -6.19382; for activation at 0.128 µM: log [agonist] (M) -6.89279; for activation at 0.0256 µM: log [agonist] (M) -7.59176
Procedure: HEK293T cells were transfected with 1 pg/cell of MRGPRX4 DNA, and the amount of DNA was kept constant at 2 pg/cell with pcDNA3.1(+) empty vector, unless otherwise specified. Twenty four hours after transfection, IP1 assay was performed as previously described ([51]). When applicable, cells were treated with 1 μM YM254890 (YM) or different concentrations of U73122 for 1 h prior to addition of agonist or buffer. After incubation for 2 h, HTRF reagents and IP1 calibration standards were added and incubated for 2 h in the dark at room temperature. Time-resolved fluorescence signals were read on the BioTek Synergy NEO-TRF Hybrid multi-mode reader (BioTek Instruments). All data were carried out in three independent experiments with three technical replicate each.
For characterization of the Tet-On Nluc-HT7-MRGPRX4-GFP10-1D4 construct, HEK293T cells were transfected as previously described with some modifications. Dox dose-response of NLuc-HT7-MRGPRX4-GFP10-1D4 DNA titration was assayed by transfecting HEK293T cells with either 1 or 2 pg/cell of NLuc-HT7-MRGPRX4-GFP10-1D4 construct. Receptor expression was induced 4 h after transfection with addition of different concentrations of dox for 20 h. For the RAMP DNA titration assay, cells were cotransfected with a constant amount of 1 pg/cell of NLuc-HT7-MRGPRX4-GFP10-1D4 DNA and 1, 0.75, 0.5, or 0 pg/cell of each HA-RAMP-OLLAS with the homogenous transfection method. Four hours after transfection, receptor expression was induced with addition of 1000 ng/ml dox. Twenty hours after induction, IP1 assay was performed.
Data reduction, standard calibration, and transformation of HTRF data were performed as previously described ([51]). Normalized IP1 values were calculated relative to the unstimulated mock-transfected cells (set to 0%) and fully stimulated MRGPRX4 (alone if applicable) (set to 100%).

[1] = SP-FLAG-Nluc-HT7-MRGX4_Tet-GFP10-1D4, read-out: normalized IP1 accumulation
[2] = SP-FLAG-Nluc-HT7-MRGX4_Tet-GFP10-1D4 no dox, read-out: normalized IP1 accumulation

T1 sequence (Q96LA9 whole entry): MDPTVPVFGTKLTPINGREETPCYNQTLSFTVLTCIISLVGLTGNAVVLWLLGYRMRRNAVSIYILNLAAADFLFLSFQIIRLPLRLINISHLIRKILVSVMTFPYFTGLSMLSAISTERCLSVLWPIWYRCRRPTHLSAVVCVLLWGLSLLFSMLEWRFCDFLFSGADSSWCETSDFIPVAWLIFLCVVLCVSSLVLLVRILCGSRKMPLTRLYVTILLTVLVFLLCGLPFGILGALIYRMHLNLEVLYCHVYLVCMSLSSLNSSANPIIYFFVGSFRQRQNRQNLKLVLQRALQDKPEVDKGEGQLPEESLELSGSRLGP

For `C[C@H](CCC(=O)O)[C@H]1CC[C@H]2[C@@H]3CC[C@@H]4C[C@H](O)CC[C@]4(C)[C@H]3C[C@H](O)[C@]12C` [DCA, deoxycholic acid], the activation at 100 µM (HA-MRGX4-1D4, log [agonist] (M) -4, read-out: normalized IP1 accumulation) was 53.9%, the activation at 20 µM (HA-MRGX4-1D4, log [agonist] (M) -4.69897, read-out: normalized IP1 accumulation) was 34.3% and the activation at 4 µM (HA-MRGX4-1D4, log [agonist] (M) -5.39794, read-out: normalized IP1 accumulation) was 19.4%. It also gave an activation at 0.8 µM (HA-MRGX4-1D4, log [agonist] (M) -6.09691, read-out: normalized IP1 accumulation) of 12.4%, an activation at […] (HA-MRGX4-1D4, log [agonist] (M) -6.79588, read-out: normalized IP1 accumulation) of 11.1% and an activation at 0.032 µM (HA-MRGX4-1D4, log [agonist] (M) -7.49485, read-out: normalized IP1 accumulation) of 11.4%. For the same molecule, the activation at 100 µM (MRGPRX4: 0.25pg/cell, log [DCA] (M) -4, Fig S1c, read-out: IP1 accumulation) was 41.7%, the activation at 20 µM (MRGPRX4: 0.25pg/cell, log [DCA] (M) -4.69897, Fig S1c, read-out: IP1 accumulation) was 28.7% and the activation at 4 µM (MRGPRX4: 0.25pg/cell, log [DCA] (M) -5.39794, Fig S1c, read-out: IP1 accumulation) was 10.1%. It also gave an activation at 100 µM (MRGPRX4: 0.5pg/cell, log [DCA] (M) -4, Fig S1c, read-out: IP1 accumulation) of 53.6%, an activation at 20 µM (MRGPRX4: 0.5pg/cell, log [DCA] (M) -4.69897, Fig S1c, read-out: IP1 accumulation) of 33.8% and an activation at 4 µM (MRGPRX4: 0.5pg/cell, log [DCA] (M) -5.39794, Fig S1c, read-out: IP1 accumulation) of 14.2%. The activation at 0.8 µM (MRGPRX4: 0.5pg/cell, log [DCA] (M) -6.09691, Fig S1c, read-out: IP1 accumulation) was 7.76%, the activation at […] (MRGPRX4: 0.5pg/cell, log [DCA] (M) -6.79588, Fig S1c, read-out: IP1 accumulation) was 7.83% and the activation at 0.032 µM (MRGPRX4: 0.5pg/cell, log [DCA] (M) -7.49485, Fig S1c, read-out: IP1 accumulation) was 6.46%. It also gave an activation at 100 µM (MRGPRX4: 1pg/cell, log [DCA] (M) -4, Fig S1c, read-out: IP1 accumulation) of 62.8%, an activation at 20 µM (MRGPRX4: 1pg/cell, log [DCA] (M) -4.69897, Fig S1c, read-out: IP1 accumulation) of 42.9% and an activation at 4 µM (MRGPRX4: 1pg/cell, log [DCA] (M) -5.39794, Fig S1c, read-out: IP1 accumulation) of 19.8%. For the same molecule, the activation at 0.8 µM (MRGPRX4: 1pg/cell, log [DCA] (M) -6.09691, Fig S1c, read-out: IP1 accumulation) was 13.1%, the activation at […] (MRGPRX4: 1pg/cell, log [DCA] (M) -6.79588, Fig S1c, read-out: IP1 accumulation) was 10.7% and the activation at 0.032 µM (MRGPRX4: 1pg/cell, log [DCA] (M) -7.49485, Fig S1c, read-out: IP1 accumulation) was 8.32%. The activation at 100 µM (MRGPRX4: 2pg/cell, log [DCA] (M) -4, Fig S1c, read-out: IP1 accumulation) was 79.9%, the activation at 20 µM (MRGPRX4: 2pg/cell, log [DCA] (M) -4.69897, Fig S1c, read-out: IP1 accumulation) was 51.7% and the activation at 4 µM (MRGPRX4: 2pg/cell, log [DCA] (M) -5.39794, Fig S1c, read-out: IP1 accumulation) was 26.6%. The activation at 0.8 µM (MRGPRX4: 2pg/cell, log [DCA] (M) -6.09691, Fig S1c, read-out: IP1 accumulation) was 15.7%, the activation at […] (MRGPRX4: 2pg/cell, log [DCA] (M) -6.79588, Fig S1c, read-out: IP1 accumulation) was 15.1% and the activation at 0.032 µM (MRGPRX4: 2pg/cell, log [DCA] (M) -7.49485, Fig S1c, read-out: IP1 accumulation) was 14.6%. The activation at 100 µM (MRGPRX4: […], log [DCA] (M) -4, Fig S1c, read-out: IP1 accumulation) was 38.8%, the activation at 20 µM (MRGPRX4: […], log [DCA] (M) -4.69897, Fig S1c, read-out: IP1 accumulation) was 21.2% and the activation at 4 µM (MRGPRX4: […], log [DCA] (M) -5.39794, Fig S1c, read-out: IP1 accumulation) was 7.81%. For the same molecule, the activation at 0.8 µM (MRGPRX4: […], log [DCA] (M) -6.09691, Fig S1c, read-out: IP1 accumulation) was 3.51%, the activation at 0.032 µM (MRGPRX4: […], log [DCA] (M) -7.49485, Fig S1c, read-out: IP1 accumulation) was 3.48% and the activation at 10 µM (MRGPRX4, DCA 10uM, Fig S1d) was 28.4%. For the same molecule, the activation at 100 µM (MRGPRX4, DCA 100uM, Fig S1d, read-out: IP1 accumulation) was 60.7%, the activation at 100 µM (MRGPRX4 alone, log [DCA] (M) -4, Fig S3d-f, read-out: IP1 accumulation) was 100% and the activation at 20 µM (MRGPRX4 alone, log [DCA] (M) -4.69897, Fig S3d-f, read-out: IP1 accumulation) was 66.8%. The activation at 4 µM (MRGPRX4 alone, log [DCA] (M) -5.39794, Fig S3d-f, read-out: IP1 accumulation) was 36.1%, the activation at 0.8 µM (MRGPRX4 alone, log [DCA] (M) -6.09691, Fig S3d-f, read-out: IP1 accumulation) was 26.3% and the activation at […] (MRGPRX4 alone, log [DCA] (M) -6.79588, Fig S3d-f, read-out: IP1 accumulation) was 23.7%. For the same molecule, the activation at 0.032 µM (MRGPRX4 alone, log [DCA] (M) -7.49485, Fig S3d-f, read-out: IP1 accumulation) was 21.4%, the activation at 30 µM (MRGX4 + DCA, U73122 30uM, Fig S1e) was 8.48% and the activation at 30 µM (MRGX4 + DCA, buffer, Fig S1e) was 39.2%. It also gave an activation at 100 µM (MRGX4 + DCA, 100uM, U73122 30uM, Fig S1e, read-out: IP1 accumulation) of 16.7%, an activation at 100 µM (MRGX4 + DCA, 100uM, buffer, Fig S1e, read-out: IP1 accumulation) of 56.2% and an activation at 80 µM [1] of 38.3%. It also gave an activation at 16 µM [1] of 22.2%, an activation at 3.2 µM [1] of 13% and an activation at 0.64 µM [1] of 10.2%. For the same molecule, the activation at 0.128 µM [1] was 9.26%, the activation at 0.0256 µM [1] was 9.64% and the activation at 80 µM [2] was 9.13%. It also gave an activation at 16 µM [2] of 7.51%, an activation at 3.2 µM [2] of 9.25% and an activation at 0.64 µM [2] of 7.7%. It also gave an activation at 0.128 µM [2] of 7.77%, an activation at 0.0256 µM [2] of 7.55% and an activation at 100 µM (SP-Flag-MRGX4-1D4, log [agonist] (M) -4, read-out: normalized IP1 accumulation) of 65.9%. For the same molecule, the activation at 20 µM (SP-Flag-MRGX4-1D4, log [agonist] (M) -4.69897, read-out: normalized IP1 accumulation) was 34.9%, the activation at 0.8 µM (SP-Flag-MRGX4-1D4, log [agonist] (M) -6.09691, read-out: normalized IP1 accumulation) was 9.9% and the activation at […] (SP-Flag-MRGX4-1D4, log [agonist] (M) -6.79588, read-out: normalized IP1 accumulation) was 8.52%. The activation at 0.032 µM (SP-Flag-MRGX4-1D4, log [agonist] (M) -7.49485, read-out: normalized IP1 accumulation) was 6.84%, the activation at 100 µM (SP-Flag-MRGX4-GFP10-1D4, log [agonist] (M) -4, read-out: normalized IP1 accumulation) was 66.1% and the activation at 20 µM (SP-Flag-MRGX4-GFP10-1D4, log [agonist] (M) -4.69897, read-out: normalized IP1 accumulation) was 33.2%. It also gave an activation at 4 µM (SP-Flag-MRGX4-GFP10-1D4, log [agonist] (M) -5.39794, read-out: normalized IP1 accumulation) of 15.5%, an activation at 0.8 µM (SP-Flag-MRGX4-GFP10-1D4, log [agonist] (M) -6.09691, read-out: normalized IP1 accumulation) of 8.34% and an activation at […] (SP-Flag-MRGX4-GFP10-1D4, log [agonist] (M) -6.79588, read-out: normalized IP1 accumulation) of 7.34%. For the same molecule, the activation at 0.032 µM (SP-Flag-MRGX4-GFP10-1D4, log [agonist] (M) -7.49485, read-out: normalized IP1 accumulation) was 7.17%, the activation at 100 µM (log [agonist] (M) -4, MRGX4-transfected, individual replicates, read-out: IP1 accumulation, dose-response (Figure 1a)) was 67.6% and the activation at 11.111 µM (log [agonist] (M) -4.95424, MRGX4-transfected, individual replicates, read-out: IP1 accumulation, dose-response (Figure 1a)) was 33.9%. It also gave an activation at 1.2346 µM (log [agonist] (M) -5.90849, MRGX4-transfected, individual replicates, read-out: IP1 accumulation, dose-response (Figure 1a)) of 14.9% and an activation at 0.13717 µM (log [agonist] (M) -6.86273, MRGX4-transfected, individual replicates, read-out: IP1 accumulation, dose-response (Figure 1a)) of 10.6%.

Source: publication PMC10165273, “Itch receptor MRGPRX4 interacts with the receptor activity–modifying proteins” (The Journal of Biological Chemistry, 2023)
